For the experiment, the target named is human TYK2 (JH2domain-pseudokinase) (Homo sapiens (Human), UniProt P29597). As to the kind of experiment: TYK2 JH2 Domain Binding Assay (KINOMEscan, DiscoveRx). The following applies: 11-point dilution, duplicate. The method in brief: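 Kd from duplicate 11-point 3-fold dilutions starting at 30,000 nM, fitted by Hill equation with slope fixed at −1. Compounds (final 0.9% DMSO) displace DNA-tagged HEK293-expressed TYK2 JH2 fusion (<0.1 nM) from ligand-coated beads over 1 h at room temperature; eluted kinase read by qPCR.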
Chain of human TYK2 (JH2domain-pseudokinase) (P29597 556-888): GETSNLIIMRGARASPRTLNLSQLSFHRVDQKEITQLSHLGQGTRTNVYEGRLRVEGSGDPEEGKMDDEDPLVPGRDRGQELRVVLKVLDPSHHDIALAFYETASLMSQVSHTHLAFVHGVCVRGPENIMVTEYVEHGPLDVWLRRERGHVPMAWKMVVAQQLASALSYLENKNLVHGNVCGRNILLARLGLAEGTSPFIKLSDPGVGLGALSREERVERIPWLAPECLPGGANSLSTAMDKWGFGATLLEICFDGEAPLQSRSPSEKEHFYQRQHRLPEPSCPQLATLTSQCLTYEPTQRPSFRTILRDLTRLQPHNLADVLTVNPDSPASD
For `Cc1cc(-c2ccc(Nc3cc(Nc4cccc(C(F)(F)F)n4)nc4[nH]c(C(F)F)nc34)c(S(C)(=O)=O)c2)nn1C` [I-290, 2-(difluoromethyl)-N7-(4-(1,5-dimethyl-1H-pyrazol-3-yl)-2-(methylsulfonyl)phenyl)-N5-(6-(trifluoromethyl)pyridin-2-yl)-3H-imidazo[4,5-b]pyridine-5,7-diamine], the Kd (in general, the free concentration of one partner at which half of the binding sites on the other are occupied at equilibrium, for simple one-to-one binding) lay in the range of 0.5 to 1 nM. Next, `Cc1nc2c(Nc3ccc([C@@H]4CCOC4)cc3S(C)(=O)=O)cc(NC(=O)C3CC3)nc2[nH]1` [I-291, (S)—N-(2-methyl-7-((2-(methylsulfonyl)-4-(tetrahydrofuran-3-yl)phenyl)amino)-3H-imidazo[4,5-b]pyridin-5-yl)cyclopropanecarboxamide]: 0.5 to 1 nM; `Cc1nc2c(Nc3ccc([C@H]4CCOC4)cc3S(C)(=O)=O)cc(NC(=O)C3CC3)nc2[nH]1` [I-292, (R)—N-(2-methyl-7-((2-(methylsulfonyl)-4-(tetrahydrofuran-3-yl)phenyl)amino)-3H-imidazo[4,5-b]pyridin-5-yl)cyclopropanecarboxamide]: 1 to 10 nM. Molecule `CS(=O)(=O)c1cc(C2CCOCC2)ccc1Nc1cc(NC(=O)[C@@H]2CC2(F)F)nc2[nH]c(C(F)F)nc12` [I-293, (S)—N-(2-(difluoromethyl)-7-((2-(methylsulfonyl)-4-(tetrahydro-2H-pyran-4-yl)phenyl)amino)-3H-imidazo[4,5-b]pyridin-5-yl)-2,2-difluorocyclopropane-1-carboxamide] gave a Kd of 1 to 10 nM. As to `CS(=O)(=O)c1cc(C2CCOCC2)ccc1Nc1cc(NC(=O)[C@H]2CC2(F)F)nc2[nH]c(C(F)F)nc12` [I-294, (R)—N-(2-(difluoromethyl)-7-((2-(methylsulfonyl)-4-(tetrahydro-2H-pyran-4-yl)phenyl)amino)-3H-imidazo[4,5-b]pyridin-5-yl)-2,2-difluorocyclopropane-1-carboxamide], the dissociation constant Kd fell in the range of 1 to 10 nM. Molecule `COCCNc1ccc(Nc2cc(Nc3ccccc3N(C)S(C)(=O)=O)c3nc(C(F)F)[nH]c3n2)nc1C#N` [I-295, N-(2-((5-((6-cyano-5-((2-methoxyethyl)amino)pyridin-2-yl)amino)-2-(difluoromethyl)-3H-imidazo[4,5-b]pyridin-7-yl)amino)phenyl)-N-methylmethane sulfonamide] came in with a Kd of 0.1 to 0.5 nM. With `COc1c(Nc2cc(NC(=O)[C@@H]3C[C@@H]3F)nc3[nH]c(C(F)F)nc23)cccc1-c1ncn(C)n1` [I-296, (1S,2S)—N-(2-(difluoromethyl)-7-((2-methoxy-3-(1-methyl-1H-1,2,4-triazol-3-yl)phenyl)amino)-3H-imidazo[4,5-b]pyridin-5-yl)-2-fluorocyclopropane-1-carboxamide] the figure was 0.5 to 1 nM; with `C[S@+]([O-])c1ccccc1Nc1cc(NC(=O)C2CC2)nc2[nH]c(C(F)F)nc12` [I-297, (S)—N-(2-(difluoromethyl)-7-((2-(methylsulfinyl)phenyl)amino)-3H-imidazo[4,5-b]pyridin-5-yl)cyclopropanecarboxamide], 0.5 to 1 nM; with `C[S@@+]([O-])c1ccccc1Nc1cc(NC(=O)C2CC2)nc2[nH]c(C(F)F)nc12` [I-298, (R)—N-(2-(difluoromethyl)-7-((2-(methylsulfinyl)phenyl)amino)-3H-imidazo[4,5-b]pyridin-5-yl)cyclopropanecarboxamide], greater than 10 nM. With `Cc1nc2c(Nc3ccc(-c4cc(C)n(C)n4)cc3S(C)(=O)=O)cc(Nc3cccc(C(F)(F)F)n3)nc2[nH]1` [I-299, N7-(4-(1,5-dimethyl-1H-pyrazol-3-yl)-2-(methylsulfonyl)phenyl)-2-methyl-N5-(6-(trifluoromethyl)pyridin-2-yl)-3H-imidazo[4,5-b]pyridine-5,7-diamine] the figure was 0.5 to 1 nM; with `Cc1ncc(Nc2cc(Nc3ccc(-c4cc(C)n(C)n4)cc3S(C)(=O)=O)c3nc(C(F)F)[nH]c3n2)nc1C` [I-300, 2-(difluoromethyl)-N7-(4-(1,5-dimethyl-1H-pyrazol-3-yl)-2-(methylsulfonyl)phenyl)-N5-(5,6-dimethylpyrazin-2-yl)-3H-imidazo[4,5-b]pyridine-5,7-diamine], 0.1 to 0.5 nM; with `Cn1cnc(-c2ccc(Nc3cc(NC(=O)[C@H]4C[C@H]4F)nc4[nH]c(C(F)F)nc34)c(S(C)(=O)=O)c2)c1` [I-301, (1R,2R)—N-(2-(difluoromethyl)-7-((4-(1-methyl-1H-imidazol-4-yl)-2-(methylsulfonyl)phenyl)amino)-3H-imidazo[4,5-b]pyridin-5-yl)-2-fluorocyclopropane-1-carboxamide], 0.1 to 0.5 nM. With `Cc1c(-c2ccc(Nc3cc(Nc4cccc(C#N)n4)nc4[nH]c(C(F)F)nc34)c(S(C)(=O)=O)c2)cnn1C` [I-302, 6-((2-(difluoromethyl)-7-((4-(1,5-dimethyl-1H-pyrazol-4-yl)-2-(methylsulfonyl)phenyl)amino)-3H-imidazo[4,5-b]pyridin-5-yl)amino)picolinonitrile] the figure was 0.1 to 0.5 nM; with `Cc1ccc(Nc2cc(Nc3ccc(-c4cc(C)n(C)n4)cc3S(C)(=O)=O)c3nc(C(F)F)[nH]c3n2)nc1C#N` [I-303, 6-((2-(difluoromethyl)-7-((4-(1,5-dimethyl-1H-pyrazol-3-yl)-2-(methylsulfonyl)phenyl)amino)-3H-imidazo[4,5-b]pyridin-5-yl)amino)-3-methylpicolinonitrile], 0.5 to 1 nM. `Cc1cnc(-c2ccc(Nc3cc(NC(=O)C4CC4)nc4[nH]c(C(F)F)nc34)c(S(C)(=O)=O)c2)s1` [I-304, N-(2-(difluoromethyl)-7-((2-(methylsulfonyl)-4-(5-methylthiazol-2-yl)phenyl)amino)-3H-imidazo[4,5-b]pyridin-5-yl)cyclopropanecarboxamide] displayed a dissociation constant Kd of 0.5 to 1 nM.

`Cc1nc2c(Nc3ccc(-c4ncc(C)s4)cc3S(C)(=O)=O)cc(NC(=O)C3CC3)nc2[nH]1` [I-305, N-(2-methyl-7-((2-(methylsulfonyl)-4-(5-methylthiazol-2-yl)phenyl)amino)-3H-imidazo[4,5-b]pyridin-5-yl)cyclopropanecarboxamide] came in with a Kd of 0.1 to 0.5 nM.

Consider `CS(=O)(=O)c1cc([C@H]2CCCO2)ccc1Nc1cc(NC(=O)[C@@H]2CC2(F)F)nc2[nH]c(C(F)F)nc12` [I-306, (S)—N-(2-(difluoromethyl)-7-((2-(methylsulfonyl)-4-((R)-tetrahydrofuran-2-yl)phenyl)amino)-3H-imidazo[4,5-b]pyridin-5-yl)-2,2-difluorocyclopropane-1-carboxamide], for which the Kd was in the range of 0.5 to 1 nM. For the molecule `CS(=O)(=O)c1cc([C@H]2CCCO2)ccc1Nc1cc(NC(=O)[C@H]2CC2(F)F)nc2[nH]c(C(F)F)nc12` [I-307, (R)—N-(2-(difluoromethyl)-7-((2-(methylsulfonyl)-4-((R)-tetrahydrofuran-2-yl)phenyl)amino)-3H-imidazo[4,5-b]pyridin-5-yl)-2,2-difluorocyclopropane-1-carboxamide], the Kd is 1 to 10 nM.

As to `Cc1c(-c2ccc(Nc3cc(NC(=O)[C@@H]4CC4(F)F)nc4[nH]c(C(F)F)nc34)c(S(C)(=O)=O)c2)cnn1C` [I-308, (S)—N-(2-(difluoromethyl)-7-((4-(1,5-dimethyl-1H-pyrazol-4-yl)-2-(methylsulfonyl)phenyl)amino)-3H-imidazo[4,5-b]pyridin-5-yl)-2,2-difluorocyclopropane-1-carboxamide], the Kd lay within 0.1 to 0.5 nM. With `Cc1c(-c2ccc(Nc3cc(NC(=O)[C@H]4CC4(F)F)nc4[nH]c(C(F)F)nc34)c(S(C)(=O)=O)c2)cnn1C` [I-309, (R)—N-(2-(difluoromethyl)-7-((4-(1,5-dimethyl-1H-pyrazol-4-yl)-2-(methylsulfonyl)phenyl)amino)-3H-imidazo[4,5-b]pyridin-5-yl)-2,2-difluorocyclopropane-1-carboxamide] the figure was 0.1 to 0.5 nM; with `CS(=O)(=O)c1cc([C@H]2CCCOC2)ccc1Nc1cc(NC(=O)[C@H]2CC2(F)F)nc2[nH]c(C(F)F)nc12` [I-310, (R)—N-(2-(difluoromethyl)-7-((2-(methylsulfonyl)-4-((R)-tetrahydro-2H-pyran-3-yl)phenyl)amino)-3H-imidazo[4,5-b]pyridin-5-yl)-2,2-difluorocyclopropane-1-carboxamide], 0.5 to 1 nM; with `CS(=O)(=O)c1cc([C@H]2CCCOC2)ccc1Nc1cc(NC(=O)[C@@H]2CC2(F)F)nc2[nH]c(C(F)F)nc12` [I-311, (S)—N-(2-(difluoromethyl)-7-((2-(methylsulfonyl)-4-((R)-tetrahydro-2H-pyran-3-yl)phenyl)amino)-3H-imidazo[4,5-b]pyridin-5-yl)-2,2-difluorocyclopropane-1-carboxamide], 1 to 10 nM. In the case of `Cc1nc2c(Nc3ccc(-c4nc(C)c(C)s4)cc3S(C)(=O)=O)cc(NC(=O)C3CC3)nc2[nH]1` [I-312, N-(7-((4-(4,5-dimethylthiazol-2-yl)-2-(methylsulfonyl)phenyl)amino)-2-methyl-3H-imidazo[4,5-b]pyridin-5-yl)cyclopropanecarboxamide], the Kd fell in the range of 0.1 to 0.5 nM. Next, `Cc1cc(-c2ccc(Nc3cc(NC(=O)[C@@H]4CC4(F)F)nc4[nH]c(C(F)F)nc34)c(S(C)(=O)=O)c2)nn1C` [I-313, (S)—N-(2-(difluoromethyl)-7-((4-(1,5-dimethyl-1H-pyrazol-3-yl)-2-(methylsulfonyl)phenyl)amino)-3H-imidazo[4,5-b]pyridin-5-yl)-2,2-difluorocyclopropane-1-carboxamide]: 0.5 to 1 nM. In turn, `Cc1cc(-c2ccc(Nc3cc(NC(=O)[C@H]4CC4(F)F)nc4[nH]c(C(F)F)nc34)c(S(C)(=O)=O)c2)nn1C` [I-314, (R)—N-(2-(difluoromethyl)-7-((4-(1,5-dimethyl-1H-pyrazol-3-yl)-2-(methylsulfonyl)phenyl)amino)-3H-imidazo[4,5-b]pyridin-5-yl)-2,2-difluorocyclopropane-1-carboxamide] displayed a dissociation constant (Kd) of 1 to 10 nM. With `Cc1cn(C)nc1-c1ccc(Nc2cc(Nc3cnc(C)c(C)n3)nc3[nH]c(C(F)F)nc23)c(S(C)(=O)=O)c1` [I-315, 2-(difluoromethyl)-N7-(4-(1,4-dimethyl-1H-pyrazol-3-yl)-2-(methylsulfonyl)phenyl)-N5-(5,6-dimethylpyrazin-2-yl)-3H-imidazo[4,5-b]pyridine-5,7-diamine] the figure was 0.1 to 0.5 nM.

These data come from US10647713B2 (Nimbus Lakshmi, Inc., priority 2016, dated 2020).
